These are literature values, as cited in patent publication US5585357A, “Heteroaryloxymethyl ketones as interleukin-1βconverting enzyme inhibitors” (Sanofi Winthrop Inc., priority 1996, dated 1996).

For data set [1] the following is noted: rat, oral administration.
For data set [2] the following is noted: animal model of ulcerative colitis.
The conditions of data set [3]: PG-APS model of arthritis in rats.
The conditions of data set [4]: small open-label human trial, subcutaneous.
The test system of data set [5] is chronic myelogenous leukemia cells. As to conditions: cells removed from leukemia patients.

As for `CCOC(=O)C[C@H](NC(=O)[C@H](C)NC(=O)[C@@H](NC(=O)OCc1ccccc1)C(C)C)C(=O)COC(=O)c1c(Cl)cccc1Cl` [SDZ 224-015], the inflammation and pyrexia entry in data set [1] is “Reduction of inflammation and pyrexia”.
“IL-1ra: naturally occurring IL-1β receptor antagonist”: the “tissue necrosis and number of inflammatory cells in the colon” value in data set [2] was “reduced tissue necrosis and the number of inflammatory cells in the colon”. Further, the joint swelling entry in data set [3] is “supresses joint swelling”. In addition, the “efficacy in Rheumatoid Arthritis” value in data set [4] was “shows efficacy”. The colony growth entry in data set [5] is listed as “inhibit colony growth”.
